A short description of the data set: Cleavage of peptides by colonic tissue lysates from TNBS-induced colitis rat model, MALDI-TOF/TOF. The settings on record: 10 µM peptide, 20 µg/mL protein, 37 °C; for Processing by colonic samples, in words (comparison of control, post-colitis and acute colitis): rat colonic lysates, up to 30 min, n = 8 per group; for Number of colonic samples in which the TL-sequence unmasking cleavage was observed, acute colitis: acute colitis lysates; for Number of colonic samples in which the TL-sequence unmasking cleavage was observed, post-colitis: post-colitis lysates. The protocol:
Adult male Sprague–Dawley rats (200–225 g; Charles River, Wilmington, MA, USA) were used in a previously described TNBS-induced acute and post-inflammatory model. Rats were housed at constant room temperature (22 ± 2 °C) and humidity (60%) with two rats per cage, unlimited access to water and food and on a 12 h–12 h light/dark cycle.
After an overnight fast, TNBS colitis was induced using a TNBS-enema (4 mg TNBS; Sigma-Aldrich, 50% ethanol) as described previously. Rats were anesthetized with a mixture of ketamine (35 mg/kg i.p.; Ketalar®, Pfizer, New York City, NY, USA) and xylazine (5 mg/kg i.p.; Rompun®, Bayer, Leverkusen, Germany), and the TNBS-enema or 0.9% saline was administered intrarectally using a flexible catheter (18 G, length 4.5 cm) to colitis and control rats, respectively. Animals were kept in a tail-up position for 1 min and were then allowed to recover in their cages with free access to water and food. […] For the post-colitis group (n = 8), a colonoscopy was performed starting from day 10 and repeated every 4 days until complete mucosal healing was observed. The rats were then sacrificed as well and colonic samples were taken.
Colonic lysates were prepared for studying their effects on cleavage patterns of added peptides with a MALDI-TOF/TOF assay. After sacrifice, a sample of approximately 50 mg of distal colon was taken from each rat. The colonic samples were immediately rinsed with Krebs solution, snap-frozen and stored at −80 °C until further processing. Sample preparation started with crushing the colonic samples on dry ice. Liquid nitrogen was used to prevent the loss of enzymatic activity due to temperature increases and the colon powders were stored at −80 °C for further experiments. […] After centrifugation, the supernatants were collected and used immediately to prepare the reaction mixtures, measure proteolytic activities with fluorogenic substrates and determine the protein content with a Bradford assay.
Colonic lysate was added to a peptide of interest to obtain the reaction mixtures with the colonic samples. Lysate and peptide were diluted so each mixture contained 10 µM peptide of interest and 20 µg/mL protein originating from the colonic tissue. These peptide and protein concentrations were based on research from Loew et al. and O’ Donoghue et al.. The mixtures were incubated at 37 °C for several incubation periods between 5 and 30 min. Afterward, the fragmentation reaction was stopped by adding trifluoroacetic acid (TFA; Alfa Aesar™, ThermoFisher, Waltham, MA, USA) to a final concentration of 2% and standard peptide (substance P, bradykinin or PAR3-based peptide) was added in a final concentration of 10 µM. Standard peptides were selected based on the mass of the peptides of interest. For each sample/peptide combination, a starting point was included as well. Here, TFA was added immediately after mixing the reaction constituents. Samples were stored at −80 °C for further MALDI-TOF/TOF experiments.
The TFA mixtures were thawed on ice and desalted using C18 zip-tips (Merck Millipore®, Burlington, MA, USA) with a capacity of 5 µg protein. Retained peptide fragments were eluted directly on the MALDI target plate. Next, 0.5 µL of a 2.5 mg/mL α-cyano-4-hydroxycinnamic acid (Sigma-Aldrich) matrix solution (in 70% acetonitrile, 0.1% TFA) was spotted on top of the sample. A 6-Peptide mixture Kit (AB Sciex, Framingham, MA, USA) containing bradykinin (2–9), angiotensin I, glu1-fibrinopeptide, ACTH (1–17), ACTH (18–39) and ACTH (7–38) was diluted with matrix and spotted on the plate as well.
MS and MS/MS data for peptide fragment identification were obtained with a MALDI-TOF/TOF instrument (4800 MALDI TOF/TOF™, Applied Biosystems, Waltham, MA, USA) and instrument parameters were set using 4000 Series Explorer™ software. MS spectra were recorded in positive reflector mode in a mass range from 500 to 4000 Da and laser intensity of 4500–4800 Hz.

[1] abbreviates: n = 8, MALDI-TOF/TOF, PAR1-based after 30 min.
The mark [2] stands for this setting: rat colonic lysate, 5-30 min, stopped with 2% TFA, MALDI-TOF/TOF relative intensity vs standard peptide, n = 8 animals.

SMILES strings stand for the structures. Residues, ends and D or L forms follow the SMILES beside them.

For `CC[C@H](C)[C@H](NC(=O)[C@H](C)NC(=O)[C@H](CC(N)=O)NC(=O)[C@H](CCCCN)NC(=O)[C@H](Cc1ccccc1)NC(=O)[C@H](CC(C)C)NC(=O)[C@@H](NC(=O)[C@@H](NC(=O)[C@H](CC(C)C)NC(=O)[C@@H]1CCCN1C(=O)[C@@H](NC(=O)[C@H](CCC(N)=O)NC(=O)[C@H](CO)NC(=O)[C@H](CCCCN)NC(=O)[C@H](CCC(=O)O)NC(=O)[C@H](CO)NC(=O)[C@@H](NC(=O)[C@H](CCSC)NC(=O)[C@H](Cc1ccccc1)NC(=O)CNC(=O)CNC(=O)[C@@H](N)Cc1ccc(O)cc1)[C@@H](C)O)[C@@H](C)O)C(C)C)[C@@H](C)O)C(=O)N[C@H](C(=O)N[C@@H](CCCCN)C(=O)N[C@@H](CC(N)=O)C(=O)N[C@@H](C)C(=O)N[C@@H](Cc1ccc(O)cc1)C(=O)N[C@@H](CCCCN)C(=O)N[C@@H](CCCCN)C(=O)NCC(=O)N[C@@H](CCC(=O)O)C(=O)O)[C@@H](C)CC` [β-endorphin], where the note is “MALDI-TOF/TOF”, the “Processing by colonic samples, in words (comparison of control, post-colitis and acute colitis)” value (“Processing by colonic samples, in words” for short) is reported as “cleaved more intensively by proteases in acute colitis samples”.

Take `CC[C@H](C)[C@H](NC(=O)[C@H](CO)NC(=O)[C@@H]1CCCN1C(=O)[C@@H](NC(=O)[C@H](CO)NC(=O)[C@H](CC(=O)O)NC(=O)[C@H](CC(=O)O)NC(=O)CNC(=O)CNC(=O)CNC(=O)[C@@H](NC(=O)[C@H](CO)NC(=O)CNC(=O)[C@H](CO)NC(=O)[C@H](CCC(=O)O)NC(=O)[C@H](CC(=O)O)NC(=O)[C@H](Cc1ccc(O)cc1)NC(=O)[C@@H](NC(=O)[C@H](CO)NC(=O)[C@@H]1CCCN1C(=O)[C@@H](NC(=O)[C@H](CCC(N)=O)NC(=O)[C@@H](NC(=O)CNC(=O)CN)[C@@H](C)O)[C@@H](C)O)C(C)C)[C@@H](C)O)[C@@H](C)O)C(=O)N[C@@H](CC(C)C)C(=O)N1CCC[C@H]1C(=O)N[C@@H](C)C(=O)N1CCC[C@H]1C(=O)N[C@@H](CCCNC(=N)N)C(=O)NCC(=O)N[C@@H](Cc1ccc(O)cc1)C(=O)N1CCC[C@H]1C(=O)NCC(=O)N[C@@H](CCC(N)=O)C(=O)N[C@H](C(=O)N[C@@H](CS)C(=O)N[C@@H](C)C(=O)N[C@@H](CC(N)=O)C(=O)N[C@@H](CC(=O)O)C(N)=O)C(C)C` [PAR4-based] (H-GGTQTPSVYDESGSTGGGDDSTPSILPAPRGYPGQVCAND-NH2): under setting [1], the “Number of colonic samples in which the TL-sequence unmasking cleavage was observed, acute colitis” value is “five out of eight” and the “Number of colonic samples in which the TL-sequence unmasking cleavage was observed, post-colitis” value is “two out of eight”. In addition, the “Incubation time after which processing was significant (decrease of full-length peptide or increase of fragment), post-colitis samples” value under setting [2] is recorded as “not in post-colitis samples”.

Regarding `CC[C@H](C)[C@H](NC(=O)[C@H](CO)NC(=O)[C@H](CC(N)=O)NC(=O)[C@H](CC(C)C)NC(=O)[C@H](Cc1ccc(O)cc1)NC(=O)[C@H](CCCCN)NC(=O)[C@H](CCCCN)NC(=O)[C@@H](NC(=O)[C@H](C)NC(=O)[C@H](CCSC)NC(=O)[C@H](CCC(N)=O)NC(=O)[C@H](CCCCN)NC(=O)[C@H](CCCN=C(N)N)NC(=O)[C@H](CC(C)C)NC(=O)[C@H](CCCN=C(N)N)NC(=O)[C@@H](NC(=O)[C@H](Cc1ccc(O)cc1)NC(=O)[C@H](CC(N)=O)NC(=O)[C@H](CC(=O)O)NC(=O)[C@@H](NC(=O)[C@H](Cc1ccccc1)NC(=O)[C@@H](NC(=O)[C@H](C)NC(=O)[C@H](CC(=O)O)NC(=O)[C@H](CO)NC(=O)[C@@H](N)Cc1c[nH]cn1)C(C)C)[C@@H](C)O)[C@@H](C)O)C(C)C)C(=O)N[C@@H](CC(C)C)C(=O)N[C@@H](CC(N)=O)C(N)=O` [VIP, Vasoactive intestinal peptide], the “Processing by colonic samples, in words” value (MALDI-TOF/TOF) is reported as “no differences”.

For the molecule `CC[C@H](C)[C@H](NC(=O)[C@@H]1CCCN1C(=O)[C@H](CC(C)C)NC(=O)[C@@H](NC(=O)[C@@H]1CCCN1C(=O)[C@H](CCCCN)NC(=O)[C@H](C)NC(=O)[C@H](CC(C)C)NC(=O)[C@H](CC(N)=O)NC(=O)[C@H](CC(N)=O)NC(=O)[C@@H](NC(=O)[C@H](CC(=O)O)NC(=O)[C@H](CC(N)=O)NC(=O)[C@H](CCC(=O)O)NC(=O)[C@H](CCSC)NC(=O)CN)[C@@H](C)O)[C@@H](C)O)C(=O)N[C@@H](CCCCN)C(=O)N[C@H](C(=O)N[C@@H](Cc1ccccc1)C(=O)N[C@@H](CCCNC(=N)N)C(=O)NCC(=O)N[C@@H](C)C(=O)N1CCC[C@H]1C(=O)N1CCC[C@H]1C(=O)N[C@@H](CC(N)=O)C(=O)N[C@@H](CO)C(=O)N[C@@H](Cc1ccccc1)C(=O)N[C@@H](CCC(=O)O)C(N)=O)[C@@H](C)O` [PAR3-based] (H-GMENDTNNLAKPTLPIKTFRGAPPNSFE-NH2), the “Incubation time after which processing was significant (decrease of full-length peptide or increase of fragment), acute colitis samples” value (rat colonic lysate, acute TNBS colitis, 5-30 min, stopped with 2% TFA, MALDI-TOF/TOF relative intensity vs standard peptide, n = 8 animals) stood at 30 min. The “Incubation time after which processing was significant (decrease of full-length peptide or increase of fragment), control samples” value (rat colonic lysate, control, 5-30 min, stopped with 2% TFA, MALDI-TOF/TOF relative intensity vs standard peptide, n = 8 animals) is on record as “No C- or N-terminal fragments could be detected”. Also, the “Incubation time after which processing was significant (decrease of full-length peptide or increase of fragment), post-colitis samples” value under setting [2] is on record as “trend towards an increase of the C-terminal fragment”. Further, under “MALDI-TOF/TOF”, the “Processing by colonic samples, in words” value is on record as “cleaved slowly”.

Take `CC[C@H](C)[C@H](NC(=O)[C@H](CC(C)C)NC(=O)[C@H](CO)NC(=O)[C@H](CCCNC(=N)N)NC(=O)CNC(=O)[C@H](CCCCN)NC(=O)[C@H](CO)NC(=O)[C@H](CO)NC(=O)[C@H](CCCNC(=N)N)NC(=O)[C@H](CC(N)=O)NC(=O)[C@@H](NC(=O)CNC(=O)[C@H](CCC(N)=O)NC(=O)[C@@H](NC(=O)[C@@H](N)[C@@H](C)O)[C@@H](C)CC)[C@@H](C)O)C(=O)NCC(=O)N[C@@H](CCCCN)C(=O)N[C@H](C(=O)N[C@@H](CC(=O)O)C(=O)NCC(=O)N[C@H](C(=O)N[C@@H](CO)C(=O)N[C@@H](Cc1c[nH]cn1)C(=O)N[C@H](C(N)=O)C(C)C)[C@@H](C)O)C(C)C` [PAR2-based] (H-TIQGTNRSSKGRSLIGKVDGTSHV-NH2): under setting [1], the “Number of colonic samples in which the TL-sequence unmasking cleavage was observed, acute colitis” value is given as “four out of eight” and the “Number of colonic samples in which the TL-sequence unmasking cleavage was observed, post-colitis” value is reported as “three out of eight”. The “Number of colonic samples in which the TL-sequence unmasking cleavage was observed, control” value (control lysates, n = 8, MALDI-TOF/TOF, PAR1-based after 30 min) is given as “two out of eight”. Moreover, for the setting “MALDI-TOF/TOF”, the “Processing by colonic samples, in words” value is “no differences”.

For the origin of these results see PMC8509398, “Proteolytic Cleavage of Bioactive Peptides and Protease-Activated Receptors in Acute and Post-Colitis” (International Journal of Molecular Sciences, 2021).
